Test results as given in patent publication US20240417410A1, “TRICYCLIC COMPOUNDS FOR THE TREATMENT OF CANCER” (Hoffmann-La Roche Inc., priority 2023, published 2024).
Like-named read-outs stand apart in the source and are kept apart here.

Columns and labels:
Experiment in all cases: Cell proliferation, CTG 3D, 7 d
Format in all cases: cell-based
AsPc-1 = conditions: Homo sapiens, ASPC1; AsPc-1, KRAS (G12D)
How it was run: (§1)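 Day −1, cells plated in low-attachment round-bottom wells and incubated at 37° C in 5% CO2. Day 0, compound dispensed as 9 doses at 3-fold steps with DMSO held at 0.2%. Day 7, CellTiter-Glo 3D added and shaken 30 min before luminescence reading.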

CAL-62 = conditions: Homo sapiens
How it was run: as §1

CFPAC-1 = conditions: Homo sapiens; CFPAC-1, KRAS (G12V)
How it was run: as §1

CHP-212 = conditions: Homo sapiens
How it was run: as §1

DV-90 = conditions: Homo sapiens
How it was run: as §1

HAL-01 = conditions: Homo sapiens
How it was run: as §1

HCT-8 = conditions: Homo sapiens
How it was run: as §1

HEC-1-A = conditions: Homo sapiens, KRAS (G12D)
How it was run: as §1

HS 578T = conditions: Homo sapiens, HRAS (p.G12D)
How it was run: as §1

HT1080 = conditions: Homo sapiens, HT-1080
How it was run: as §1

HuT 78 = conditions: Homo sapiens, HuT78
How it was run: as §1

LoVo = conditions: Homo sapiens
How it was run: as §1

NCI-H1355 = conditions: Homo sapiens
How it was run: as §1

NCI-H1734 = conditions: Homo sapiens
How it was run: as §1

NCI-H1915 = conditions: Homo sapiens
How it was run: as §1

NCI-H2347 = conditions: Homo sapiens
How it was run: as §1

NCI-H358 = conditions: Homo sapiens; NCI-H358, KRAS (G12C)
How it was run: as §1

NCI-H838 = conditions: Homo sapiens; NCI-H838, KRAS (WT ampl)
How it was run: as §1

PA-1 = conditions: Homo sapiens; PA-1, NRAS (p.G12D)
How it was run: as §1

PL-21 = conditions: Homo sapiens
How it was run: as §1

Panc 02.13 = conditions: Homo sapiens
How it was run: as §1

RKN = conditions: Homo sapiens, KRAS (G12V)
How it was run: as §1

SJSA-1 = conditions: Homo sapiens
How it was run: as §1

SK-CO-1 = conditions: Homo sapiens; SK-CO-1, KRAS (G12V)
How it was run: as §1

SW 900 = conditions: Homo sapiens, SW900; SW 900, KRAS (G12V)
How it was run: as §1

TOV-21G = conditions: Homo sapiens, TOV21G
How it was run: as §1

UMC-11 = conditions: Homo sapiens; UMC-11, KRAS (WT ampl)
How it was run: as §1

Question: With `CO[C@@H](C)c1ncc(N2CCN(C)CC2)cc1-c1c2c3cc(cc4c3n1CCC4)-c1csc(n1)C[C@H](NC(=O)[C@H]1[C@H](C)[C@@H]1C)C(=O)N1CCC[C@H](N1)C(=O)OCC(C)(C)C2` (atropisomer, axis not shown; (M)) [Example 24, (1r,2R,3S)-N-[(7S,13S)-(20M)-20-[2-[(1S)-1-methoxyethyl]-5-(4-methylpiperazin-1-yl)-3-pyridyl]-17,17-dimethyl-8,14-dioxo-15-oxa-4-thia-9,21,30,31-tetrazahexacyclo[23.3.1.1^2,5.1^9,13.0^19,27.0^21,26]hentriaconta-1 (28),2,5 (31), 19,25 (29),26-hexaen-7-yl]-2,3-dimethyl-cyclopropanecarboxamide] as the compound, how does the IC50 (AsPc-1) read?
Answer: The IC50 was 0.65 nM.

Question: What about the IC50 (CAL-62; CAL-62, KRAS (G12R), read-out: IC50) of the same compound?
Answer: The IC50 was 1.1 nM.

Question: What about the IC50 (CFPAC-1) of the same compound?
Answer: Its IC50 is 0.54 nM.

Question: And the IC50 (CHP-212; CHP-212, NRAS (p.Q61K), read-out: IC50)?
Answer: Its IC50 is 0.35 nM.

Question: And the IC50 (DV-90; DV-90, KRAS (G13D), read-out: IC50)?
Answer: Its IC50 is 3.9 nM.

Question: What about the IC50 (HAL-01; HAL-01, NRAS (p.G12S), read-out: IC50) of the same compound?
Answer: The IC50 was 13 nM.

Question: What about the IC50 (HCT-8; HCT-8, KRAS (G13D), read-out: IC50) of the same compound?
Answer: The IC50 was 80 nM.

Question: And the IC50 (HEC-1-A)?
Answer: Its IC50 is 1.6 nM.

Question: What about the IC50 (HS 578T) of the same compound?
Answer: Its IC50 is 1.7 nM.

Question: And the IC50 (HT1080; HT1080, NRAS (p.Q61K), read-out: IC50)?
Answer: Its IC50 is 0.36 nM.

Question: What about the IC50 (HuT 78; HuT 78, NRAS (p.Q61K), read-out: IC50) of the same compound?
Answer: Its IC50 is 0.3 nM.

Question: What about the IC50 (LoVo; KRAS (G13D), read-out: IC50) of the same compound?
Answer: The IC50 was 0.55 nM.

Question: And the IC50 (NCI-H1355; NCI-H1355, KRAS (G13C), read-out: IC50)?
Answer: The IC50 was 22 nM.

Question: And the IC50 (NCI-H1734; NCI-H1734, KRAS (G13C), read-out: IC50)?
Answer: The IC50 was 0.74 nM.

Question: What about the IC50 (NCI-H1915; NCI-H1915, HRAS (p.Q61L), read-out: IC50) of the same compound?
Answer: Its IC50 is 3.6 nM.

Question: And the IC50 (NCI-H2347; NCI-H2347, KRAS (L19F), read-out: IC50)?
Answer: Its IC50 is 2 nM.

Question: And the IC50 (NCI-H358)?
Answer: The IC50 was 0.12 nM.

Question: What about the IC50 (NCI-H838) of the same compound?
Answer: Its IC50 is 100 nM.

Question: What about the IC50 (PA-1) of the same compound?
Answer: Its IC50 is 0.46 nM.

Question: What about the IC50 (PL-21; PL-21, KRAS (A146V), read-out: IC50) of the same compound?
Answer: Its IC50 is 1 nM.

Question: What about the IC50 (Panc 02.13; Panc 02.13, KRAS (Q61R), read-out: IC50) of the same compound?
Answer: Its IC50 is 4 nM.

Question: And the IC50 (RKN)?
Answer: The IC50 was 0.045 nM.

Question: What about the IC50 (SJSA-1; SJSA-1, KRAS (Q61H), read-out: IC50) of the same compound?
Answer: The IC50 was 2.6 nM.

Question: And the IC50 (SK-CO-1)?
Answer: The IC50 was 0.18 nM.

Question: What about the IC50 (SW 900) of the same compound?
Answer: The IC50 was 0.28 nM.

Question: What about the IC50 (TOV-21G; TOV-21G, KRAS (G13C), read-out: IC50) of the same compound?
Answer: Its IC50 is 4.9 nM.

Question: What about the IC50 (UMC-11) of the same compound?
Answer: The IC50 was 100 nM.

Question: `CCn1c(-c2cc(N3CCN(C)CC3)cnc2[C@H](C)OC)c2c3cc(ccc31)-c1csc(n1)C[C@H](NC(=O)[C@H]1C[C@@H]1C)C(=O)N1CCC[C@H](N1)C(=O)OCC(C)(C)O2` [Example A122, reference compound] was tested. Which IC50 (AsPc-1) did it give?
Answer: The IC50 was 0.55 nM.

Question: What about the IC50 (CAL-62; CAL-62) of the same compound?
Answer: Its IC50 is 8.8 nM.

Question: And the IC50 (CFPAC-1)?
Answer: The IC50 was 1.1 nM.

Question: What about the IC50 (CHP-212; CHP-212) of the same compound?
Answer: Its IC50 is 1.1 nM.

Question: What about the IC50 (DV-90; DV-90) of the same compound?
Answer: The IC50 was 4.7 nM.

Question: What about the IC50 (HAL-01; HAL-01) of the same compound?
Answer: The IC50 was 14 nM.

Question: And the IC50 (HCT-8; HCT-8)?
Answer: Its IC50 is 69 nM.

Question: And the IC50 (HEC-1-A)?
Answer: The IC50 was 1.9 nM.

Question: What about the IC50 (HS 578T) of the same compound?
Answer: The IC50 was 3.1 nM.

Question: And the IC50 (HT1080)?
Answer: The IC50 was 0.49 nM.

Question: What about the IC50 (HuT 78) of the same compound?
Answer: The IC50 was 0.55 nM.

Question: And the IC50 (LoVo)?
Answer: The IC50 was 0.36 nM.

Question: What about the IC50 (NCI-H1355; NCI-H1355) of the same compound?
Answer: Its IC50 is 33 nM.

Question: What about the IC50 (NCI-H1734; NCI-H1734) of the same compound?
Answer: Its IC50 is 1.3 nM.

Question: And the IC50 (NCI-H1915; NCI-H1915)?
Answer: Its IC50 is 10 nM.

Question: What about the IC50 (NCI-H2347; NCI-H2347) of the same compound?
Answer: Its IC50 is 4.2 nM.

Question: And the IC50 (NCI-H358)?
Answer: Its IC50 is 0.27 nM.

Question: What about the IC50 (NCI-H838) of the same compound?
Answer: The IC50 was 100 nM.

Question: What about the IC50 (PA-1) of the same compound?
Answer: Its IC50 is 0.42 nM.

Question: And the IC50 (PL-21; PL-21)?
Answer: Its IC50 is 2.1 nM.

Question: What about the IC50 (Panc 02.13) of the same compound?
Answer: The IC50 was 15 nM.

Question: And the IC50 (RKN)?
Answer: The IC50 was 0.066 nM.

Question: What about the IC50 (SJSA-1; SJSA-1) of the same compound?
Answer: Its IC50 is 3.1 nM.

Question: And the IC50 (SK-CO-1)?
Answer: Its IC50 is 0.33 nM.

Question: And the IC50 (SW 900)?
Answer: The IC50 was 0.23 nM.

Question: What about the IC50 (TOV-21G) of the same compound?
Answer: Its IC50 is 33 nM.

Question: And the IC50 (UMC-11)?
Answer: The IC50 was 100 nM.
